Measured values reported in patent publication US20060127980A1, “Human excitatory amino acid transporter-2 gene promoter and uses thereof” (priority 2003, published 2006).

Experiments:
Assay type in all cases: cell-based, human
[1] = tested on: hEAAT2 promoter; assay: hEAAT2 promoter luciferase assay of agents in H4 glioma cells (FIG. 12); details: H4 malignant glioma cells; 10 μM
Description: (§1) FIG. 12. Effect of various agents on hEAAT2 promoter activity in H4 human malignant glioma cells. A: ceftriaxone; B: amoxicillin; C: chloramphenicol; D: thiamphenicol; E: vancomycin; F: glycine; G: glutamate; H: DMSO; I: dibutyryl cAMP. H4 is a rare clone of malignant glioma cells that support hEAAT2 promoter activity. H4 cells were seeded at 5×10^4 cells/35-mm plate. Twenty-four h later cells were untreated (CON) or received the indicated compound at a final concentration of 10 μM. Forty-eight h later the cells were transfected with a FL pGL3/EAAT2 luciferase reporter construct (5 μg) plus a pSVβGalactosidase construct (1 μg) using the calcium phosphate precipitation method (Su et al. 2003, Proc. Natl. Acad. Sci. USA 100:1955-1960). After an additional 48 h, cell lysates were prepared and luciferase activity was determined using the Luciferase Assay System Kit (Promega, E1501) and luminescence determined using a luminometer (Turner Designs, TD20/20) (Su et al. 2003, Proc. Natl. Acad. Sci. USA 100:1955-1960). Data presented are the average of 3 independent plates±S.D. Qualitatively similar results were obtained in 2 additional experiments.
as §1, with “H4, the third cell line examined,” for “FIG. 12. Effect of various agents on hEAAT2 promoter activity in H4 human malignant glioma cells. A: ceftriaxone; B: amoxicillin; C: chloramphenicol; D: thiamphenicol; E: vancomycin; F: glycine; G: glutamate; H: DMSO; I: dibutyryl cAMP. H4”, “activity. In the studies shown in FIG. 12,” for “activity.”

[2] = tested on: hEAAT2 transcription; assay: Nuclear run-on assay of hEAAT2 transcription in PHFA; details: 7-day treatment
Description: (§2) FIG. 4A-D. Effect of modulators of hEAAT2 activity on hEAAT2 expression and hEAAT2 promoter activity in PHFA. A. A Northern analysis of hEAAT2 and GAPDH mRNA expression following treatment with EGF (30 ng/ml), TGF-α (30 ng/ml), dbcAMP (200 μM, bromo-cAMP (100 μM) or TNF-α (200 U/ml) for 7 days. B. Nuclear run-on assays determining the relative rates of hEAAT2 and GAPDH transcription as a function of 7-day treatment with the same concentrations of the indicated agents. C. A time course of mRNA expression of hEAAT2 and GAPDH following treatment with EGF, bromo-cAMP or TNF-α (same concentrations as in A.). D. Fold luciferase activity in PHFA transfected with flhEAAT2Prom-luc or various deletion mutants of hEAAT2 and non-transfected controls treated with the indicated compounds for four days.
Primer Extension Analysis and Nuclear Run-on Assays. Primer extension assays were performed as described (Su et al., 2000, Oncogene 19(30):3411-3421). A primer with the sequence 5′-[…]-3′ (SEQ ID NO:6) complementary to the 5′ UTR of the hEAAT2 cDNA was used for this assay. Nuclear run-on assays were performed as described (Su et al., 1997, Proc Natl Acad Sci USA 94(17):9125-9130).
To examine whether stimulation of hEAAT2 expression involves transcriptional changes, nuclear run-on assays were performed.

[3] = tested on: hEAAT2 promoter; assay: flhEAAT2Prom-luc and deletion mutant luciferase reporter assay in PHFA treated with modulators; details: four day treatment
Description: as §2
Construction of hEAAT2 Promoter Deletion Mutants and Performance of the Luciferase Assays. 5′-deletion mutants of the hEAAT2 promoter were made with exonuclease III digestion using the Erase-A-Base System (Promega) as described for the PEG-3 promoter (Su et al., 2000, Oncogene 19(30):3411-3421). The flhEAAT2Prom-luc and flhEAAT2Prom-luc deletion mutants were cloned into the pGL3-basic luciferase reporter vector (Promega) and luciferase reporter assays were performed as described (Su et al., 2000, Oncogene 19(30):3411-3421; Su et al., 2001, Nucleic Acids Res 29(8):1661-1671), except that instead of using lipofectamine, which was toxic to PHFA, the calcium phosphate precipitation transfection technique was used (Babiss et al., 1986, Proc Natl Acad Sci USA 83(7):2167-2171).
Preferential Expression of the hEAAT2 Promoter in PHFA and Deletion Analysis of the hEAAT2 Promoter. hEAAT2 is expressed in brain-derived cells, mainly astrocytes (Tanaka et al., 1997, Science 276(5319):1699-1702; Anderson et al., 2000, Glia 32(1):1-14). Experiments were performed to confirm hEAAT2 promoter activity in normal human astrocytes and to determine expression levels in other cell types (FIG. 2A). Primary early passage and established human normal and tumor cell lines were co-transfected with a putative full-length ˜2.5 kb hEAAT2 promoter, a SacII fragment extending from bp −2426 to bp +44, was cloned into the pGL3-basic vector (Promega), where it drove expression of the firefly luciferase (luc) gene, and a pSV-β-galactosidase expression plasmid. Relative fold expression of a full length hEAAT2 promoter-luciferase (flhEAAT2Prom-luc) construct was determined as described (Su et al., 2000, Oncogene 19(30):3411-3421; Su et al., 2001, Nucleic Acids Res 29(8):1661-1671), and activity versus transfection with a pSV-β-galactosidase plasmid was calculated as described (Su et al., 2000, Oncogene 19(30):3411-3421; Su et al., 2001, Nucleic Acids Res 29(8):1661-1671) to equalize for differences in transfection efficiency.
To examine further the relationship between hEAAT2 and treatment with the various glutamate transporter modulators, transient transfection assays were performed in PHFA using the flhEAAT2Prom-luc constructs and various deletions thereof (FIG. 4D). […] In the case of dbcAMP, promoter activity was enhanced by ˜3-fold.

Question: Which results are given for CCCC(=O)Nc1ncnc2c1ncn2[C@@H]1O[C@@H]2COP(=O)(O)O[C@H]2[C@H]1OC(=O)CCC [dbcAMP, dibutyryl cyclic AMP]?
Answer: hEAAT2 promoter activity [1]: potent stimulators; relative rate of transcription of hEAAT2 RNA compared with GAPDH [2]: elevated; stimulation of promoter activity after deletion of bp −2426 to bp −703 ([3]; deletion mutant): did not significantly decrease; upregulation of promoter activity after deletion of bp −703 to bp −326 ([3]; deletion mutant): most relevant; upregulation of hEAAT2 promoter activity ([3]; flhEAAT2Prom-luc): ~3 fold
